Assay results taken from patent publication US7745644B2, “Antibiotic compounds” (Merck Sharp & Dohme Corp., priority 2003, dated 2010).
≈ marks a conversion by molar mass, not a printed value.

Tests used:
[1] = tested on: S. aureus; assay: Microbroth dilution MIC assay; type: cell-based, Staphylococcus aureus
Description: (§1) The strains used are isolates from either the Merck Culture Collection, the Merck Clinical Culture Collection or from Clinical Trials. The strain of Haemophilus influenzae is a mouse pathogen used for in vivo testing at Merck. The Escherichia coli strain is a cell wall permeable strain. The Candida albicans strain is used as a control. These culture are maintained as frozen stocks at −80° C. in a.) Microbank beads; b.) 2× Skim Milk; or c.) in 2× Trypticase Soy Broth+15% glycerol/50% horse serum (Haemophilus and Streptococcus pneumoniae).
(§2) Selected isolates are subcultured onto either Chocolate Agar Plates (Haemophilus influenzae), onto Trypticase Soy+5% Sheep Blood Agar Plates (Streptococcus pneumoniae, Staphylococcus aureus, Escherichia coli, Enterococcus, Bacillus) or onto Sabouraud Dextrose Agar (Candida) and incubated at 35° C. Haemophilus and Streptococcus pneumoniae are incubated in 5% CO2; all other isolates are incubated in ambient air. Isolates are subcultured 2× before assay.
(§3) Colonies are selected from plates and used to prepare an inoculum equivalent to a 0.5 McFarland standard in Trypticase Soy Broth. An inoculum with a density equivalent to a 1.0 McFarland standard is prepared for Streptococcus pneumoniae. The inoculum density for all cultures is −10^8 CFU/mL in TSB. This TSB inoculum is diluted 1:10 in sterile saline (4 mL inoculum+36 mL saline; equivalent to −10^7 CFU/mL) and kept on ice until used to inoculate microtiter plates.
All wells of 96-well microtiter plates (Dynex) are filled with 100 TL media. Haemophilus test media plates are prepared to test Haemophilus influenzae; Cation-Adjusted Mueller Hinton+5% Lysed Horse Blood plates are prepared to test Streptococcus pneumoniae; Cation-Adjusted Mueller Hinton Broth plates are prepared to test Enterococcus, Staphylococcus aureus, Escherichia coli and Bacillus subtilis. RPMI 1640 is used to test Candida The MICs against S. aureus Smith are determined in Cation-adjusted Mueller Hinton and in Cation-Adjusted Mueller Hinton+50% Human Serum to determine if the compound is inactivated by some component in serum (indicated by an increase in the MIC). Filled plates are wrapped in plastic bags (to minimize evaporation), stored frozen and thawed before use.
The compounds are prepared on a weight basis. Compounds are prepared to 2 mg/mL in 100% DMSO, then diluted to 1 mg/mL in a 1:1 dilution of DMSO/2×CAMHB (final concentration=50% DMSO/50% CAMHB). […]
(§4) All wells of microtiter plates are inoculated with (saline-diluted) culture using the MIC 2000 System, an automated plate inoculating device which delivers an inoculum of 1.5 TL per well. […] Results are recorded after 22-24-hours' incubation. Plates were read to no growth.

[2] = tested on: E. faecalis; assay: Microbroth dilution MIC assay; type: cell-based, Enterococcus faecalis; conditions: various strains of E. faecalis
Description: as §1, §2
(§5) Colonies are selected from plates and used to prepare an inoculum equivalent to a 0.5 McFarland standard in Trypticase Soy Broth. […]
as §4

[3] = tested on: E. faecium; assay: Microbroth dilution MIC assay; type: cell-based, Enterococcus faecium
Description: as §1, §2, §3
All wells of 96-well microtiter plates (Dynex) are filled with 100 TL media. […]
as §4

[4] = tested on: S. pneumoniae; assay: Microbroth dilution MIC assay; type: cell-based, Streptococcus pneumoniae; conditions: various strains of S. pneumoniae
Description: as §1, §2, §5, §4

[5] = tested on: S. epidermidis; assay: Microbroth dilution MIC assay; type: cell-based, Staphylococcus epidermidis; conditions: macrolide-resistant S. epidermidis
[6] = Microbroth dilution MIC assay, all test strains pooled; type: cell-based; conditions: range over all test strains, including resistant ones; NCCLS guidelines; read-out: minimum inhibitory concentration (MIC)
Description: as §1, §2, §5, §4

[7] = tested on: B. subtilis; assay: Microbroth dilution MIC assay; type: cell-based, Bacillus subtilis; conditions: various strains of B. subtilis
Description: as §1, §2, §5, §4

[8] = tested on: vancomycin-resistant Enterococcus sp. (VRE); assay: Microbroth dilution MIC assay; type: cell-based
Description: as §1, §2, §5, §4

[9] = tested on: E. coli; assay: Microbroth dilution MIC assay; type: cell-based, Escherichia coli; conditions: various strains of E. coli; cell wall permeable strain
Description: as §1, §2, §5, §4

In the case of `C[C@@]12C[C@]34C=CC(=O)[C@](C)(CCC(=O)Nc5c(O)ccc(C(=O)O)c5O)C3[C@@H](CC1C4)O2` (some centres unmarked) [Compound I], the antibacterial activity ([1]; linezolid-resistant S. aureus) is reported as “demonstrates antibacterial activity”, the antibacterial activity ([1]; macrolide-resistant S. aureus) is reported as “demonstrates antibacterial activity” and the antibacterial activity ([1]; methicillin-resistant S. aureus (MRSA)) is reported as “demonstrates antibacterial activity”. For the same compound, the antibacterial activity ([1]; various strains of S. aureus) was “demonstrates antibacterial activity”, the antibacterial activity [2] was “demonstrates antibacterial activity” and the antibacterial activity ([3]; linezolid-resistant E. faecium) was “demonstrates antibacterial activity”. The antibacterial activity ([3]; multidrug-resistant E. faecium) was “demonstrates antibacterial activity”, the antibacterial activity ([3]; various strains of E. faecium) was “demonstrates antibacterial activity” and the antibacterial activity [4] was “demonstrates antibacterial activity”. The antibacterial activity [5] was “demonstrates antibacterial activity”, the MIC [6] was 0.1 to 32 µg/mL (≈ 0.227 to 72.5 µM) and the antibacterial activity [7] was “demonstrates antibacterial activity”. For the same compound, the antibacterial activity [8] was “demonstrates antibacterial activity” and the antibacterial activity [9] was “demonstrates antibacterial activity”.
